Assay results taken from patent publication US20250255981A1, “IMMUNOMODULATORY ANTIBODY-DRUG CONJUGATES” (Seagen Inc., priority 2022, published 2025).
In brackets after ≈: the same amount, converted by molar mass.

tested on: THP1-Dual™ cells (IRF-Lucia luciferase reporter); experiment: THP1-Dual™ cell reporter assay; format: cell-based, human; settings: ADC: drug linker conjugated to targeted mAb, 48 h; some values average of multiple experiments
Protocol: Potency of compounds and ADCs was evaluated using the THP1-Dual™ cells (Invivogen PN: thpd-nfis [also referred to as THP1 dual reporter cells]), which contain an IRF-Lucia luciferase reporter. Cells were cultured in RPMI-1640 (Gibco) with 10% heat-inactivated fetal bovine serum, Pen-Strep (100 U/mL-100 […], Gibco), HEPES (10 mM, Gibco)), sodium pyruvate (1 mM, Gibco), MEM non-essential amino acids (1×, Gibco), GlutaMAX (1×, Gibco), and beta-mercaptoethanol (55 μM, Gibco). Cells were plated in a 96-well flat bottom tissue culture-treated clear polystyrene plate (Corning Costar #3596) at ˜100,000 cells per well in 200 μL with the indicated concentration of the compound or ADC. The supernatant was harvested at 24 hours (compounds) or 48 hours (ADC) post plating for the reporter assay, or as indicated. To measure Lucia reporter signal, 10 µL of the supernatant was combined with 40 µL of QUANTI-Luc™ Luminescence assay reagent (Invivogen PN: rep-qlc1) in a 96-well clear flat bottom tissue culture-treated black polystyrene plate (Corning Costar #3603) and read on a Perkin Elmer Envision plate reader.

| Structure (SMILES) | EC50, Lucia reporter signal |
| --- | --- |
| CCn1nc(C)cc1C(=O)Nc1nc2cc(C(N)=O)cc(OC)c2n1C/C=C/Cn1c(NC(=O)c2cc(C)nn2CC)nc2cc(C(N)=O)cc(OCCCN(C)C(=O)[C@H](CC(=O)O)NC(=O)CCN3C(=O)C=CC3=O)c21 [Compound 17, (S,E)-4-((3-((5-carbamoyl-1-(4-(5-carbamoyl-2-(1-ethyl-3-methyl-1H-pyrazole-5-carboxamido)-7-methoxy-1H-benzo[d]imidazol-1-yl)but-2-en-1-yl)-2-(1-ethyl-3-methyl1H-pyrazole-5-carboxamido)-1H-benzo[d]imidazol-7-yl)oxy)propyl)(methyl)amino)-3-(3-(2,5-dioxo-2,5-dihydro-1H-pyrrol-1-yl)propanamido)-4-oxobutanoic acid] | 2.2 ng/mL (≈ 0.00208 µM) |
| CCn1nc(C)cc1C(=O)Nc1nc2cc(C(N)=O)cc(OC)c2n1C/C=C/Cn1c(NC(=O)c2cc(C)nn2CC)nc2cc(C(N)=O)cc(OCCCN(C)C(=O)[C@H](CO)NC(=O)CCN3C(=O)C=CC3=O)c21 [Compound 24, (S,E)-1-(4-(5-carbamoyl-2-(1-ethyl-3-methyl-1H-pyrazole-5-carboxamido)-7-methoxy-1H-benzo[d]imidazol-1-yl)but-2-en-1-yl)-7-(3-(2-(3-(2,5-dioxo-2,5-dihydro-1H-pyrrol-1-yl)propanamido)-3-hydroxy-N-methylpropanamido)propoxy)-2-(1-ethyl-3-methyl-1H-pyrazole-5-carboxamido)-1H-benzo[d]imidazole-5-carboxamide] | 2.1 ng/mL (≈ 0.00203 µM) |
| CCn1nc(C)cc1C(=O)Nc1nc2cc(S(N)(=O)=O)ccc2n1C/C=C/Cn1c(NC(=O)c2cc(C)nn2CC)nc2cc(C(N)=O)cc(OCCCN(C)C(=O)CCN3C(=O)C=CC3=O)c21 [Compound 25, (E)-7-(3-(3-(2,5-dioxo-2,5-dihydro-1H-pyrrol-1-yl)-N-methylpropanamido)propoxy)-2-(1-ethyl-3-methyl-1H-pyrazole-5-carboxamido)-1-(4-(2-(1-ethyl-3-methyl-1H-pyrazole-5-carboxamido)-5-sulfamoyl-1H-benzo[d]imidazol-1-yl)but-2-en-1-yl)-1H-benzo[d]imidazole-5-carboxamide] | 307 ng/mL (≈ 0.323 µM) |
| CCn1nc(C)cc1C(=O)Nc1nc2cc(C(N)=O)cc(OC)c2n1C/C=C/Cn1c(NC(=O)c2cc(C)nn2CC)nc2cc(C(N)=O)cc(OCCC3CN(C(=O)CCN4C(=O)C=CC4=O)C3)c21 [Compound 26, (E)-1-(4-(5-carbamoyl-2-(1-ethyl-3-methyl-1H-pyrazole-5-carboxamido)-7-methoxy-1H-benzo[d]imidazol-1-yl)but-2-en-1-yl)-7-(2-(1-(3-(2,5-dioxo-2,5-dihydro-1H-pyrrol-1-yl)propanoyl)azetidin-3-yl)ethoxy)-2-(1-ethyl-3-methyl-1H-pyrazole-5-carboxamido)-1H-benzo[d]imidazole-5-carboxamide] | 14.4 ng/mL (≈ 0.015 µM) |
| CCn1nc(C)cc1C(=O)Nc1nc2cc(C(N)=O)cc(OC)c2n1C/C=C/Cn1c(NC(=O)c2cc(C)nn2CC)nc2cc(C(N)=O)cc(OCCCOC3CN(C(=O)CCN4C(=O)C=CC4=O)C3)c21 [Compound 27, (E)-1-(4-(5-carbamoyl-2-(1-ethyl-3-methyl-1H-pyrazole-5-carboxamido)-7-methoxy-1H-benzo[d]imidazol-1-yl)but-2-en-1-yl)-7-(3-((1-(3-(2,5-dioxo-2,5-dihydro-1H-pyrrol-1-yl)propanoyl)azetidin-3-yl)oxy)propoxy)-2-(1-ethyl-3-methyl-1H-pyrazole-5-carboxamido)-1H-benzo[d]imidazole-5-carboxamide] | 10.4 ng/mL (≈ 0.0105 µM) |
| CCn1nc(C)cc1C(=O)Nc1nc2cc(C(=O)OC)cc(OC)c2n1C/C=C/Cn1c(NC(=O)c2cc(C)nn2CC)nc2cc(C(=O)OC)cc(OCCCN(C)C(=O)CCN3C(=O)C=CC3=O)c21 [compound 66, methyl (E)-7-(3-(3-(2,5-dioxo-2,5-dihydro-1H-pyrrol-1-yl)-N-methylpropanamido)propoxy)-2-(1-ethyl-3-methyl-1H-pyrazole-5-carboxamido)-1-(4-(2-(1-ethyl-3-methyl-1H-pyrazole-5-carboxamido)-7-methoxy-5-(methoxycarbonyl)-1H-benzo[d]imidazol-1-yl)but-2-en-1-yl)-1H-benzo[d]imidazole-5-carboxylate] | >10,000 ng/mL |
| CCn1nc(C)cc1C(=O)Nc1nc2cc(C(=O)OC)cc(OC)c2n1C/C=C/Cn1c(NC(=O)c2cc(C)nn2CC)nc2cc(C(=O)OC)cc(OCCCN(C)C(=O)OCc3ccc(O[C@@H]4O[C@H](C(=O)O)[C@@H](O)[C@H](O)[C@H]4O)cc3NC(=O)CCNC(=O)CCN3C(=O)C=CC3=O)c21 [compound 67] | >10,000 ng/mL |
| CCn1nc(C)cc1C(=O)Nc1nc2cc(C(=O)O)cc(OC)c2n1C/C=C/Cn1c(NC(=O)c2cc(C)nn2CC)nc2cc(C(=O)O)cc(OCCCN(C)C(=O)CCN3C(=O)C=CC3=O)c21 [compound 68, (E)-1-(4-(5-carboxy-2-(1-ethyl-3-methyl-1H-pyrazole-5-carboxamido)-7-methoxy-1H-benzo[d]imidazol-1-yl)but-2-en-1-yl)-7-(3-(3-(2,5-dioxo-2,5-dihydro-1H-pyrrol-1-yl)-N-methylpropanamido)propoxy)-2-(1-ethyl-3-methyl-1H-pyrazole-5-carboxamido)-1H-benzo[d]imidazole-5-carboxylic acid] | >10,000 ng/mL |
| CCn1nc(C)cc1C(=O)Nc1nc2cc(C(=O)O)cc(OC)c2n1C/C=C/Cn1c(NC(=O)c2cc(C)nn2CC)nc2cc(C(=O)O)cc(OCCCN(C)C(=O)OCc3ccc(O[C@@H]4O[C@H](C(=O)O)[C@@H](O)[C@H](O)[C@H]4O)cc3NC(=O)CCNC(=O)CCN3C(=O)C=CC3=O)c21 [compound 69] | >10,000 ng/mL |

same assay, conditions: Homo sapiens, THP1-Dual; small molecules, 24 h; >10,000 nM = minimal activity up to 10 μM; some values average of multiple experiments; read-out: EC50, Lucia reporter signal

| EC50 | Structure (SMILES) |
| --- | --- |
| > 10000 nM | COc1cc(C(N)=O)cc2nc(NC(=O)c3ccnnc3)n(C/C=C/Cn3c(NC(=O)c4cccnn4)nc4cc(C(N)=O)cc(O)c43)c12 [Compound 42] |
| 275 nM | CCn1nc(C)cc1C(=O)Nc1nc2cc(C(N)=O)cc(OC)c2n1C/C=C/Cn1c(NC(=O)c2cc(C)nn2CC)nc2cc(C(N)=O)cc(OCCCN(C)C(=O)[C@H](CC(=O)OC)NC(=O)CCN3C(=O)CC(SC[C@H](N)C(=O)O)C3=O)c21 (stereo partly drawn) [compound 72] |

| Structure (SMILES) | EC50 |
| --- | --- |
| CCn1nc(C)cc1C(=O)Nc1nc2cc(C(N)=O)cc(OC)c2n1C/C=C/Cn1c(NC(=O)c2cc(C)nn2CC)nc2cc(C(N)=O)cc(OCCCN(C)C(=O)CCN3C(=O)C=CC3=O)c21 [compound 12, (E)-1-(4-(5-carbamoyl-2-(1-ethyl-3-methyl-1H-pyrazole-5-carboxamido)-7-methoxy-1H-benzo[d]imidazol-1-yl)but-2-en-1-yl)-7-(3-(3-(2,5-dioxo-2,5-dihydro-1H-pyrrol-1-yl)-N-methylpropanamido)propoxy)-2-(1-ethyl-3-methyl-1H-pyrazole-5-carboxamido)-1H-benzo[d]imidazole-5-carboxamide] | 37 nM |

same assay, conditions: drug linker conjugated to targeted mAb, 48 h

| Structure (SMILES) | relative potency / activity of ADC, Lucia reporter |
| --- | --- |
| CCn1nc(C)cc1C(=O)Nc1nc2cc(C(N)=O)cc(OC)c2n1C/C=C/Cn1c(NC(=O)c2cc(C)nn2CC)nc2cc(C(N)=O)cc(OCCCN(C)C(=O)OCc3ccc(O[C@@H]4O[C@H](C(=O)O)[C@@H](O)[C@H](O)[C@H]4O)cc3NC(=O)CCNC(=O)CCN3C(=O)C=CC3=O)c21 [compound 13] | more potent when conjugated to a targeted mAb via a cleavable glucuronide linker (13) than the similar compound 1 conjugate (11) |

same assay, conditions: free drug, 24 h (48 h elsewhere in the source)

| Structure (SMILES) | relative potency of free drug, Lucia reporter |
| --- | --- |
| CCn1nc(C)cc1C(=O)Nc1nc2cc(C(N)=O)cc(O)c2n1C/C=C/Cn1c(NC(=O)c2cc(C)nn2CC)nc2cc(C(N)=O)cc(OCCCNC)c21 [Compound 15b] | more potent than 12a |

same assay, conditions: small molecules, 24 h; >10,000 nM = minimal activity up to 10 μM; some values average of multiple experiments; read-out: EC50, Lucia reporter signal

| EC50 | Structure (SMILES) |
| --- | --- |
| 5.8 nM | CCn1nc(C)cc1C(=O)Nc1nc2cc(C(N)=O)cc(O)c2n1C/C=C/Cn1c(NC(=O)c2cc(C)nn2CC)nc2cc(C(N)=O)cc(OCCCNC)c21 [Compound 15b] |
